Measured values reported in patent US10183938B2, “Geminal substituted quinuclidine amide compounds as agonists of α-7 nicotonic acetylcholine receptors” (AXOVANT SCIENCES GMBH, priority 2014, dated 2019).
Where a name gives a salt, the structure may show the parent alone.

molecular target: human α7 nAChRs transiently expressed in Xenopus laevis oocytes (Homo sapiens (Human), UniProt P36544); assay: Oocyte electrophysiology screen (TEVC); assay type: cell-based; conditions: 0.01 mM test compound, peak current relative to 0.2 mM ACh
Protocol: Oocyte Electrophysiology Screen (% ACh @ 10 μM Oocyte)
The Oocyte Electrophysiology Screen studies were performed under contract by HiQScreen Geneva, Switzerland. All experiments were carried out at human α7 nAChRs transiently expressed in Xenopus laevis oocytes using the method of cDNA expression. Currents evoked by acetylcholine or other agonist ligands were recorded using the standard two-electrode voltage-clamp configuration (TEVC). X. laevis oocytes were prepared and injected using standard procedures. Briefly, ovaries were harvested from X. laevis females that were deeply anesthetized and pithed following the animal rights rule from the Geneva canton. A small piece of ovary was isolated for immediate preparation while the remaining part was placed at 4° C. in a sterile Barth solution containing in mM: NaCl 88, KCl 1, NaHCO3 2.4, HEPES 10, MgSO4.7H2O 0.82, Ca(NO3)2.4H2O 0.33, CaCl2.6H2O 0.41, at pH 7.4, and supplemented with 20 μg/mL of kanamycin, 100 unit/mL penicillin and 100 μg/mL streptomycin. […] Cells were held at −80 mV. Data were filtered at 10 Hz, captured at 100 Hz and analyzed using proprietary data acquisition and analysis software running under Matlab (Mathworks Inc.).
Experimental Protocol and Analysis
After establishing a baseline transmembrane current, acetylcholine (ACh) was applied for 5 seconds at a concentration of 0.2 mM to establish a control ACh-evoked current response. Following a wash period of 90 s in OR2 medium (free of ACh), cells were then exposed for 30 s to the test compound applied at 0.01 mM. The same reference ACh test pulse was immediately given at the end of the compound exposure and again after 90 s of recovery in OR2 Medium (free of ACh or test compound). All data were determined in triplicate. The response evoked by the test compound was expressed as a percentage of that evoked by ACh: Response (% ACh)=100×(Itest/IACh) where Itest is the peak inward current measured during exposure to 0.01 mM of test compound and IACh is the peak inward current measured in the presence of ACh.

Sequence of human α7 nAChRs transiently expressed in Xenopus laevis oocytes (P36544 23-502 limits assumed): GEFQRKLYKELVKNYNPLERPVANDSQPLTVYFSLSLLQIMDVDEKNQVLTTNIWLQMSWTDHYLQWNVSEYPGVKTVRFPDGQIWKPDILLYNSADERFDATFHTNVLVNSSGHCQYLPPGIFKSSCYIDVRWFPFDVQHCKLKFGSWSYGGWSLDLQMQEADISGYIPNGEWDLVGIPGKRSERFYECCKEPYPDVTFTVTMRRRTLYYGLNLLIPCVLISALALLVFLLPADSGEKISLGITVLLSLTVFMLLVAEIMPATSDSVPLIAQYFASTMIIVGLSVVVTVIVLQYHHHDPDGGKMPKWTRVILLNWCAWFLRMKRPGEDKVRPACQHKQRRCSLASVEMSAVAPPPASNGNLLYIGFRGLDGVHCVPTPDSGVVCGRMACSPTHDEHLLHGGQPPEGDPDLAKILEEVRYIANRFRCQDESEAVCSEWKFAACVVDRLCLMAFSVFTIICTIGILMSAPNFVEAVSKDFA

SMILES | % ACh @ 10 μM Oocyte [% ACh]
O=C(NC1C2CCN(CC2)C12CC2)c1cc2cc(Cl)c(Cl)cc2s1 (single isomer, unassigned; enantiomer2) [67b, 5,6-dichloro-N-(1′-azaspiro[cyclopropane-1,2′-bicyclo[2.2.2]octan]-3′-yl)benzo[b]thiophene-2-carboxamide-enantiomer2 hydrochloride] | 1
CC1(C)[C@H](NC(=O)c2cc3ccccc3s2)C2CCN1CC2 [(R)-1, (R)—N-(2,2-dimethylquinuclidin-3-yl)benzo[b]thiophene-2-carboxamide hydrochloride] | 401
COc1ccc2sc(C(=O)N[C@@H]3C4CCN(CC4)C3(C)C)cc2c1 [(R)-21, (R)—N-(2,2-dimethylquinuclidin-3-yl)-5-methoxybenzo[b]thiophene-2-carboxamide hydrochloride] | 73
Cc1csc2cc(C(=O)N[C@@H]3C4CCN(CC4)C3(C)C)ccc12 [(R)-25, (R)—N-(2,2-dimethylquinuclidin-3-yl)-3-methylbenzo[b]thiophene-6-carboxamide hydrochloride] | 7
CC1(C)[C@H](NC(=O)c2ccc3cc[nH]c3c2)C2CCN1CC2 [(R)-26, (R)—N-(2,2-dimethylquinuclidin-3-yl)-1H-indole-6-carboxamide hydrochloride] | 687
CC1(C)[C@H](NC(=O)c2cnn3ncccc23)C2CCN1CC2 [(R)-27, (R)—N-(2,2-dimethylquinuclidin-3-yl)pyrazolo[1,5-b]pyridazine-3-carboxamide hydrochloride] | 0
CC1(C)[C@H](NC(=O)c2nc3ccccc3s2)C2CCN1CC2 [(R)-29, (R)—N-(2,2-dimethylquinuclidin-3-yl)benzo[d]thiazole-2-carboxamide hydrochloride] | 448
CC1(C)[C@H](NC(=O)c2ccc3ccoc3c2)C2CCN1CC2 [(R)-31, (R)—N-(2,2-dimethylquinuclidin-3-yl)benzofuran-6-carboxamide hydrochloride] | 294
Cc1nc2cc(C(=O)N[C@@H]3C4CCN(CC4)C3(C)C)ccc2o1 [(R)-32, (R)—N-(2,2-dimethylquinuclidin-3-yl)-2-methylbenzo[d]oxazole-5-carboxamide] | 61
Cc1nc2ccc(C(=O)N[C@@H]3C4CCN(CC4)C3(C)C)cc2o1 [(R)-33, (R)—N-(2,2-dimethylquinuclidin-3-yl)-2-methylbenzo[d]oxazole-6-carboxamide] | 6
Cc1nc2cc(C(=O)N[C@@H]3C4CCN(CC4)C3(C)C)ccc2s1 [(R)-34, (R)—N-(2,2-dimethylquinuclidin-3-yl)-2-methylbenzo[d]thiazole-5-carboxamide hydrochloride] | 159
Cc1nc2ccc(C(=O)N[C@@H]3C4CCN(CC4)C3(C)C)cc2s1 [(R)-35, (R)—N-(2,2-dimethylquinuclidin-3-yl)-2-methylbenzo[d]thiazole-6-carboxamide hydrochloride] | 6
CC1(C)[C@H](NC(=O)c2ccc3occc3n2)C2CCN1CC2 [(R)-37, (R)—N-(2,2-dimethylquinuclidin-3-yl)furo[3,2-b]pyridine-5-carboxamide hydrochloride] | 5
Cc1cc2cc(C(=O)N[C@@H]3C4CCN(CC4)C3(C)C)ccc2o1 [(R)-38, (R)—N-(2,2-dimethylquinuclidin-3-yl)-2-methylbenzofuran-5-carboxamide hydrochloride] | 339
CC1(C)[C@H](NC(=O)c2ccc3oc(Cl)cc3c2)C2CCN1CC2 [(R)-39, (R)-2-chloro-N-(2,2-dimethylquinuclidin-3-yl)benzofuran-5-carboxamide hydrochloride] | 697
Cc1coc2ccc(C(=O)N[C@@H]3C4CCN(CC4)C3(C)C)cc12 [(R)-40, (R)—N-(2,2-dimethylquinuclidin-3-yl)-3-methylbenzofuran-5-carboxamide hydrochloride] | 517
CC1(C)[C@H](NC(=O)c2ccc3occ(Cl)c3c2)C2CCN1CC2 [(R)-41, (R)-3-chloro-N-(2,2-dimethylquinuclidin-3-yl)benzofuran-5-carboxamide hydrochloride] | 384
Cn1cnc2cc(C(=O)N[C@@H]3C4CCN(CC4)C3(C)C)ccc21 [(R)-42, (R)—N-(2,2-dimethylquinuclidin-3-yl)-1-methyl-1H-benzo[d]imidazole-5-carboxamide hydrochloride] | 0
CC1(C)[C@H](NC(=O)c2cc3ccc(N4CCOCC4)cc3s2)C2CCN1CC2 [(R)-44, (R)—N-(2,2-dimethylquinuclidin-3-yl)-6-morpholinobenzo[b]thiophene-2-carboxamide hydrochloride] | 1
CC1(C)[C@H](NC(=O)c2cc3ccc(N4CCC(F)(F)CC4)cc3s2)C2CCN1CC2 [(R)-45, (R)-6-(4,4-difluoropiperidin-1-yl)-N-(2,2-dimethylquinuclidin-3-yl)benzo[b]thiophene-2-carboxamide hydrochloride] | 1
CC(C)Oc1ccc2cc(C(=O)N[C@@H]3C4CCN(CC4)C3(C)C)sc2c1 [(R)-47, (R)—N-(2,2-dimethylquinuclidin-3-yl)-6-isopropoxybenzo[b]thiophene-2-carboxamide hydrochloride] | 1
CC1(C)[C@H](NC(=O)c2cc3ccc(N)cc3s2)C2CCN1CC2 [(R)-49, (R)-6-amino-N-(2,2-dimethylquinuclidin-3-yl)benzo[b]thiophene-2-carboxamide hydrochloride] | 576

same assay, conditions: 0.01 mM test compound, peak current relative to 0.2 mM ACh; hydrochloride

SMILES | % ACh @ 10 μM Oocyte [% ACh]
O=C(NC1C2CCN(CC2)C12CC2)c1cc2ccc(Cl)cc2s1 (single isomer, unassigned; enantiomer2) [65b, 6-chloro-N-(1′-azaspiro[cyclopropane-1,2′-bicyclo[2.2.2]octan]-3′-yl)benzo[b]thiophene-2-carboxamide-enantiomer2 hydrochloride] | 1
Cc1ccc2cc(C(=O)NC3C4CCN(CC4)C34CC4)sc2c1 (single isomer, unassigned; enantiomer2) [68b, 6-methyl-N-(1′-azaspiro[cyclopropane-1,2′-bicyclo[2.2.2]octan]-3′-yl)benzo[b]thiophene-2-carboxamide-enantiomer2 hydrochloride] | 5
Cc1ccc2sc(C(=O)NC3C4CCN(CC4)C34CC4)cc2c1 (single isomer, unassigned; enantiomer2) [69b, 5-methyl-N-(1′-azaspiro[cyclopropane-1,2′-bicyclo[2.2.2]octan]-3′-yl)benzo[b]thiophene-2-carboxamide-enantiomer2 hydrochloride] | 1
O=C(NC1C2CCN(CC2)C12CC2)c1cc2cc(C(F)(F)F)ccc2s1 (single isomer, unassigned; enantiomer2) [70b, N-(1′-azaspiro[cyclopropane-1,2′-bicyclo[2.2.2]octan]-3′-yl)-5-(trifluoromethyl)benzo[b]thiophene-2-carboxamide-enantiomer2 hydrochloride] | 1
O=C(NC1C2CCN(CC2)C12CC2)c1cc2ccc(C3CC3)cc2s1 (single isomer, unassigned; enantiomer2) [71b, 6-cyclopropyl-N-(1′-azaspiro[cyclopropane-1,2′-bicyclo[2.2.2]octan]-3′-yl)benzo[b]thiophene-2-carboxamide-enantiomer2 hydrochloride] | 2
O=C(NC1C2CCN(CC2)C12CC2)c1cc2cc(C3CC3)ccc2s1 (single isomer, unassigned; enantiomer2) [72b, 5-cyclopropyl-N-(1′-azaspiro[cyclopropane-1,2′-bicyclo[2.2.2]octan]-3′-yl)benzo[b]thiophene-2-carboxamide-enantiomer2 hydrochloride] | 1
COc1ccc2cc(C(=O)NC3C4CCN(CC4)C34CC4)sc2c1 (single isomer, unassigned; enantiomer2) [73b, 6-methoxy-N-(1′-azaspiro[cyclopropane-1,2′-bicyclo[2.2.2]octan]-3′-yl)benzo[b]thiophene-2-carboxamide-enantiomer2 hydrochloride] | 1
COc1ccc2sc(C(=O)NC3C4CCN(CC4)C34CC4)cc2c1 (single isomer, unassigned; enantiomer2) [74b, 5-methoxy-N-(1′-azaspiro[cyclopropane-1,2′-bicyclo[2.2.2]octan]-3′-yl)benzo[b]thiophene-2-carboxamide-enantiomer2 hydrochloride] | 4
